Data as given in ChEMBL document CHEMBL5321254, “A method for tritiation of iboxamycin permits measurement of its ribosomal binding” (Bioorg Med Chem Lett, 2023).

How the values were obtained:
Type in all cases: subcellular
[1] = target: Bacterial 70S ribosome (Bacteria) (UniProt P0A7V0+P60723+P0AG67+P0A7R5+P0A7R9+P0A7S3+P0A7S9+P0AG59+P0ADZ4+P0A7T3+P0AG63+P0A7T7+P0A7U3+P0A7U7+P68679+P0A7V3+P0A7V8+P0A7W1+P02358+P02359+P0A7W7+P0A7X3+P0A7J3+P0A7J7+P0AA10+P0ADY3+P02413+P0ADY7+P0AG44+P0C018+P0A7K6+P0A7L0+P0A7L3+P0AG48+P61175+P0ADZ0+P60624+P68919+P0A7L8+P0A7M2+P0A7M6+P60422+P0AG51+P0A7N1+P0A7M9+P0A7N4+P0A7N9+P0A7P5+P0A7Q1+Q2EEQ2+P0A7Q6+P60438+P62399+P0AG55+P0A7K2); assay: Potency index, ratio of clindamycin Ki(app) to test compound Ki(app) for binding affinity to Escherichia coli ribosomes
Bacterial 70S ribosome [2] = assay: Binding affinity to Escherichia coli ribosomes assessed as apparent inhibition constant by scintillation counter analysis; details: read-out: Ki(app)
Bacterial 70S ribosome [3] = assay: Binding affinity to Escherichia coli ribosomes assessed as apparent dissociation constant by scintillation counter analysis; details: read-out: Kd(app)

| SMILES | Ratio Ki(app) [1] | Ki (Bacterial 70S ribosome [2]) [nM] | Kd (Bacterial 70S ribosome [3]) [nM] |
| --- | --- | --- | --- |
| CS[C@H]1O[C@H]([C@H](NC(=O)[C@H]2NC[C@@H]3C[C@H](CC(C)C)CCO[C@H]32)[C@H](C)Cl)[C@H](O)[C@H](O)[C@H]1O | 70 | 41 | 34 |
| CCC[C@@H]1C[C@@H](C(=O)N[C@@H]([C@H]2O[C@H](SC)[C@H](O)[C@@H](O)[C@H]2O)[C@H](C)Cl)N(C)C1 [CLINDAMYCIN] |  | 2700 |  |
